ChEMBL document CHEMBL4619816, “GSK973 Is an Inhibitor of the Second Bromodomains (BD2s) of the Bromodomain and Extra-Terminal (BET) Family” (ACS Med Chem Lett, 2020)
In brackets after ≈: the same amount, converted by molar mass.

Assays:
[1] = Chromatographic hydrophobicity index, log D of the compound in pH 7.4 ammonium acetate buffer/acetonitrile gradient by HPLC analysis; type: physicochemical
[2] = tested on: Bromodomain-containing protein 4 (Homo sapiens), O60885 [UNDEFINED MUTATION]; experiment: Selectivity index, ratio of IC50 for displacement of Alexa Fluor 647 labelled ligand from His6-tagged BRD4 BD1 (1 to 477 residues)/BD2 Y390A mutant (unknown origin) to IC50 for displacement of Alexa Fluor 647 labelled ligand from His6-tagged BRD4 BD2 (1 to 477 residues)/BD1 Y97A mutant (unknown origin)
[3] = target: Bromodomain-containing protein 4 (Homo sapiens, UniProt O60885, Y97A); experiment: Displacement of Alexa Fluor 647 labelled ligand from His6-tagged BRD4 BD2 (1 to 477 residues)/BD1 Y97A mutant (unknown origin) after 30 mins by TR-FRET assay
[4] = target: Bromodomain-containing protein 4 (Homo sapiens, UniProt O60885, Y390A); experiment: Displacement of Alexa Fluor 647 labelled ligand from His6-tagged BRD4 BD1 (1 to 477 residues)/BD2 Y390A mutant (unknown origin) after 30 mins by TR-FRET assay
[5] = tested on: Blood; experiment: Inhibition of LPS-induced MCP1 production in human whole blood preincubated for 30 mins followed by LPS addition measured after 24 hrs by immuno assay; type: functional, tissue-based
[6] = Half life in Wistar Han rat at 1 mg/kg administered as iv infusion for 1 hr and measured up to 7 hrs by LC-MS/MS analysis; type: ADME, organism-based; settings: in vivo
[7] = Renal clearance in Wistar Han rat at 1 mg/kg administered as iv infusion for 1 hr and measured up to 7 hrs by LC-MS/MS analysis; type: ADME, organism-based; settings: in vivo
[8] = Permeability of compound by artificial membrane assay; type: ADME; settings: PAMPA; read-out: permeability
[9] = Clearance in human pooled hepatocytes assessed as per gram tissue at 0.5 uM measured up to 2 hrs by LC-MS/MS analysis; type: ADME, cell-based, Hepatocyte
[10] = Oral bioavailability in Wistar Han rat at 3 mg/kg administered via gavage and measured up to 7 hrs by LC-MS/MS analysis; type: ADME, organism-based; settings: in vivo
[11] = Clearance in Wistar Han rat hepatocytes assessed as per gram tissue at 0.5 uM by LC-MS/MS analysis; type: ADME, cell-based, Hepatocyte
[12] = Volume of distribution at steady state in Wistar Han rat at 1 mg/kg administered as iv infusion for 1 hr and measured up to 7 hrs by LC-MS/MS analysis; type: ADME, organism-based; settings: in vivo, read-out: Vdss
[13] = Clearance in Wistar Han rat at 1 mg/kg administered as iv infusion for 1 hr and measured up to 7 hrs by LC-MS/MS analysis; type: ADME, organism-based; settings: in vivo
[14] = Solubility of compound by CLND method; type: physicochemical
[15] = Clearance in Beagle dog hepatocytes assessed as per gram tissue at 0.5 uM measured up to 2 hrs by LC-MS/MS analysis; type: ADME, cell-based, Canis lupus familiaris, Hepatocyte
[16] = Clearance in Beagle dog hepatocytes assessed as per gram tissue at 0.5 uM measured up to 1 hr by LC-MS/MS analysis; type: ADME, cell-based, Canis lupus familiaris, Hepatocyte
[17] = Clearance in human pooled hepatocytes assessed as per gram tissue at 0.5 uM by LC-MS/MS analysis; type: ADME, cell-based, Hepatocyte
[18] = Clearance in Wistar Han rat hepatocytes assessed as per gram tissue at 0.5 uM measured up to 1 hr by LC-MS/MS analysis; type: ADME, cell-based, Hepatocyte
[19] = target: serum albumin (Homo sapiens, UniProt P02768); experiment: Binding affinity to human serum albumin; type: ADME; settings: read-out: PB (converted)
serum albumin, sequence (P02768 whole entry): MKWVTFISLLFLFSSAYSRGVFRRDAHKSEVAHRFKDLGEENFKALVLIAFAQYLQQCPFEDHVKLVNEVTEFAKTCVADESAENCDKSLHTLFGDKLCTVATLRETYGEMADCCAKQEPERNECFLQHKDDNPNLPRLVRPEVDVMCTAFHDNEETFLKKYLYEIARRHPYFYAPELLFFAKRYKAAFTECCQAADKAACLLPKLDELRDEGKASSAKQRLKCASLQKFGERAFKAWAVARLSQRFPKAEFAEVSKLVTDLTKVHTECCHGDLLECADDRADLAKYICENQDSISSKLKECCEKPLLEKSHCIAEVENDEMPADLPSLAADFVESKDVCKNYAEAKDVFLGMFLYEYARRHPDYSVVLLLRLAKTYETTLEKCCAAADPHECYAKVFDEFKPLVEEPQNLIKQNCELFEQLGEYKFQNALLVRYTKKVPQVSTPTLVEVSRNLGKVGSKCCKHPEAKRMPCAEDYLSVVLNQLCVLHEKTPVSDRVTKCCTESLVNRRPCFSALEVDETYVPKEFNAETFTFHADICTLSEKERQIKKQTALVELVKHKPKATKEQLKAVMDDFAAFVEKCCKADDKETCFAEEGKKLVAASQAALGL

[20] = tested on: PBMC; experiment: Inhibition of LPS-induced MCP1 production in human PBMC; type: functional, cell-based

Row | Structure (SMILES) | CHI [1] | Ratio IC50 [2] | IC50 [3] | IC50 [4] | IC50 [5] | other results
1 | CNC(=O)c1cc(C(N)=O)cn(Cc2ccccc2)c1=O | 2.03 | – | – | – | – | –
2 | CCNC(=O)c1cc(C(=O)NC)c(=O)n(Cc2ccccc2)c1 | 2.99 | – | – | – | – | –
3 | CNC(=O)c1cccc2c1O[C@@H](c1ccccc1)[C@@H]2C | – | 5 | 10000 nM | – | – | –
4 | CNC(=O)c1cc(C(N)=O)cc2c1O[C@H](C)[C@H]2c1ccccc1 | 3.28 | 160 | 100 nM | 15800 nM | – | –
5 | CNC(=O)c1cccc2c1O[C@H](C)[C@H]2c1ccccc1 (single isomer, unassigned) | – | 25 | 794 nM | – | – | –
6 | CNC(=O)c1cccc2c1O[C@@H](C)[C@H]2c1ccccc1 | – | 10 | 2510 nM | – | – | –
7 | CNC(=O)c1cc(C(=O)NCCC[C@H]2OC[C@H](N)CO2)cc2c1O[C@H](CF)[C@H]2c1ccccc1 | 2.94 | – | – | – | 126 nM | half-life [6]: 36 min; CL renal [7]: 10 mL/min/kg; Papp [8]: 4.5 ×10⁻⁶ cm/s; bioavailability [10]: 3%; CLH [11]: 1.39 mL/min/g; Vd [12]: 2.1 L/kg; clearance [13]: 73 mL/min/kg
8 | CNC(=O)c1cc(C(=O)NCCO)cn(Cc2ccccc2)c1=O | 1.9 | – | – | – | – | –
9 | CNC(=O)c1cc(C(=O)NCCOC)cn(Cc2ccccc2)c1=O | 2.74 | – | – | – | – | –
10 | CNC(=O)c1cc(C(=O)NCCOC)cc2c1O[C@H](C)[C@H]2c1ccccc1 | 3.81 | 200 | 200 nM | 39800 nM | – | –
11 | CNC(=O)c1cc(C(=O)NC)c(=O)n(Cc2ccccc2)c1 | 2.38 | – | – | – | – | –
12 | CNC(=O)c1cc(C(=O)NC2CC2)cn(Cc2ccccc2)c1=O [GSK620] | 3.07 | – | – | – | – | –

The next lines start with results.

Row | CHI [1] | Ratio IC50 [2] | IC50 [3] | IC50 [4] | IC50 [5] | Structure (SMILES) | other results
13 | 3.12 | > 320 | 158 nM | > 50100 nM | – | CNC(=O)c1cc(C(=O)NCCO)cc2c1O[C@H](C)[C@H]2c1ccccc1 | –
14 | 2.89 | – | – | – | – | CNC(=O)c1cc(C(N)=O)cc2c1O[C@H](CF)[C@H]2c1ccccc1 | –
15 | 3.51 | > 300 | 158 nM | > 50100 nM | – | CNC(=O)c1cc(C(=O)NC2CCOC2)cc2c1O[C@H](CF)[C@H]2c1ccccc1 (stereo partly specified) | –
16 | 4.53 | – | – | – | 100 nM | CNC(=O)c1cc(C(=O)N[C@H]2C[C@@H]2C)cc2c1O[C@H](CF)[C@H]2c1ccccc1 | –
17 | 3 | 800 | – | 15800 nM | 200 nM | CNC(=O)c1cc(C(=O)N[C@@H]2C[C@H]2CO)cc2c1O[C@H](CF)[C@H]2c1ccccc1 | half-life [6]: 30 min; CL renal [7]: 4 mL/min/kg; Papp [8]: 7.3 ×10⁻⁶ cm/s; CLH [9]: < 0.45 mL/min/g; bioavailability [10]: 15%; CLH [11]: 1.65 mL/min/g; Vd [12]: 1.7 L/kg; clearance [13]: 98 mL/min/kg; solubility kinetic [14]: 114 µg/mL (≈ 286 µM); CLH [15]: < 0.65 mL/min/g
18 | 3.94 | – | – | – | 200 nM | CNC(=O)c1cc(C(=O)NC2CC2)cc2c1O[C@H](CF)[C@H]2c1ccccc1 | CLH [16]: < 1.26 mL/min/g; CLH [17]: < 0.45 mL/min/g; CLH [18]: 3.2 mL/min/g
19 | 4.11 | 1000 | 39.8 nM | 39800 nM | – | CCNC(=O)c1cc(C(=O)NC)c2c(c1)[C@H](c1ccccc1)[C@@H](C)O2 | –
20 | 4.24 | 1600 | – | – | 200 nM | CNC(=O)c1cc(C(=O)NC2CC2)cc2c1O[C@H](C)[C@H]2c1ccccc1 | half-life [6]: 24 min; CL renal [7]: 0.2 mL/min/kg; Papp [8]: 44 ×10⁻⁶ cm/s; fraction unbound [19]: 0.11; CLH [17]: 1.42 mL/min/g; CLH [11]: 2.48 mL/min/g; Vd [12]: 2.3 L/kg; clearance [13]: 90 mL/min/kg; solubility kinetic [14]: 137 µg/mL (≈ 391 µM); IC50 [20]: 6.31 nM
21 | 2.18 | 1200 | 39.8 nM | 50100 nM | 158 nM | CNC(=O)c1cc(C(=O)NCC[C@@H]2CNCCO2)cc2c1O[C@H](CF)[C@H]2c1ccccc1 | CLH [9]: < 0.45 mL/min/g; CLH [11]: 1.28 mL/min/g; CLH [15]: < 0.65 mL/min/g
22 | 3.55 | 400 | 31.6 nM | 12600 nM | – | CNC(=O)c1cc(C(=O)NC)c2c(c1)[C@H](c1ccccc1)[C@@H](C)O2 | –
23 | 3.34 | – | – | – | 200 nM | CNC(=O)c1cc(C(=O)NC)c2c(c1)[C@H](c1ccccc1)[C@@H](CF)O2 | CLH [17]: < 0.45 mL/min/g; CLH [18]: 3.02 mL/min/g
24 | 2.53 | – | – | – | 794 nM | CNC(=O)c1cc(C(=O)NC2CC2)cc2c1O[C@H](CO)[C@H]2c1ccccc1 | half-life [6]: 24 min; CL renal [7]: 23 mL/min/kg; Papp [8]: 26.6 ×10⁻⁶ cm/s; bioavailability [10]: 2%; fraction unbound [19]: 0.21; CLH [17]: < 0.45 mL/min/g; CLH [11]: < 0.8 mL/min/g; Vd [12]: 1.4 L/kg; clearance [13]: 74 mL/min/kg; solubility kinetic [14]: > 177 µg/mL
25 | 2.92 | 400 | 79.4 nM | 31600 nM | 316 nM | CNC(=O)c1cc(C(=O)N[C@H]2C[C@H](O)C2)cc2c1O[C@H](CF)[C@H]2c1ccccc1 | CLH [17]: < 0.45 mL/min/g; CLH [11]: 1.84 mL/min/g
